Experimental data reported in patent US9932637B2, “Genetic polymorphisms associated with cardiovascular disorders and drug response, methods of detection and uses thereof” (CELERA CORPORATION, priority 2003, dated 2018).

System: patients with prior myocardial infarction (CARE study)
Assay: CARE: association of SNPs with pravastatin treatment in cardiovascular events prevention (logistic regression, odds ratio pravastatin vs placebo by genotype; Table 8)
Format: in vivo, human
Details: All Patients; for Coronary Artery Bypass or Revascularization, n/total (%) / Total Coronary Heart Disease Events, n/total (%) / Fatal/Non-fatal Atherosclerotic CV Disease, n/total (%) / Hosp. for Cardiovascular Disease, n/total (%) / Total Cardiovascular Disease Events, n/total (%) / Fatal/Non-fatal MI (def & prob), n/total (%) / Fatal CHD/Definite Non-fatal MI, n/total (%) / Non-fatal MI (def & prob), n/total (%): Prava
From the text: In order to identify genetic markers associated with acute coronary events (e.g. MI, stroke, unstable angina, congestive heart failure, etc.) or response to statin treatment for the prevention of coronary events, samples from the Cholesterol and Recurrent Events (CARE) study (a randomized multicentral double-blinded trial on secondary prevention of acute coronary events with pravastatin) (Sacks et al., 1991, Am. J. Cardiol. 68: 1436-1446) were genotyped. A well-documented myocardial infarction (MI) was one of the enrollment criteria for entry into the CARE study. Patients were enrolled in the CARE trial from 80 participating study centers. […] Patients were randomized to receive either 40 mg of pravastatin once daily or a matching placebo. The primary endpoint of the trial was death from coronary heart disease and the median duration of follow-up was 5.0 years (range, 4.0 to 6.2 years). […] Secondary endpoints of other related cardiovascular or metabolic disease events, and changes in clinical variables were also recorded in pravastatin-treated and placebo groups. All individuals included in the study had signed a written informed consent form and the study protocol was approved by the respective Institutional Review Boards (IRBs).
For genotyping SNPs in CARE patient samples, DNA was extracted from blood samples using conventional DNA extraction methods such as the QIA-amp kit from Qiagen. Genotypes were obtained on an ABI PRISM® 7900HT Sequence Detection PCR system (Applied Biosystems, Foster City, Calif.) by kinetic allele-specific PCR, similar to the method described by Germer et al. (Germer S., Holland M. J., Higuchi R. 2000, Genome Res. 10: 258-266).
Statistical analysis for association of SNPs with pravastatin treatment in cardiovascular events prevention (Table 8) was carried out using an overall logistic regression model that included an intercept, a parameter for the effect of a genotype containing two rare alleles versus a genotype containing no rare alleles, a parameter for the effect of a genotype containing one rare allele versus a genotype containing no rare alleles, a parameter for the effect of use of pravastatin versus the use of placebo, and parameters for the interaction effects between SNP genotypes and pravastatin use. The test of the overall model is a chi-square test with two degrees of freedom for analyses containing all three genotypes, and one degree of freedom for analyses containing two genotypes.
Effect sizes were estimated through odds ratios (pravastatin group versus placebo) for carriers of each genotype (groups of 0, 1, and 2 minor allele carriers). The effect was considered to be significant if p-value for testing whether any of the interactions between SNP genotypes and pravastatin use were <0.05. […] Odds ratios less than one indicate that the specific SNP allele has a protective effect and odds ratios greater than one indicate that the specific SNP allele has an adverse effect.

[1] = HLA-DPB1 hCV8851085, Coronary Artery Bypass or Revascularization
[2] = HLA-DPB1 hCV8851085, Fatal/Non-fatal Atherosclerotic CV Disease
[3] = HLA-DPB1 hCV8851085, Fatal/Non-fatal MI (def & prob)
[4] = HLA-DPB1 hCV8851085, Hosp. for Cardiovascular Disease
[5] = HLA-DPB1 hCV8851085, Total Cardiovascular Disease Events
[6] = HLA-DPB1 hCV8851085, Total Coronary Heart Disease Events
[7] = HLA-DPB1 hCV25651174, 2 Rare Alleles, n/total 20/144

In the case of `CC[C@H](C)C(=O)O[C@H]1C[C@H](O)C=C2C=C[C@H](C)[C@H](CC[C@@H](O)C[C@@H](O)CC(=O)O)[C@H]21` [pravastatin], the “Coronary Artery Bypass or Revascularization, n/total (%)” value (HLA-DPB1 hCV8851085, 0 Rare Alleles, n/total 129/919) is reported as “(14.0%)”, the “Total Coronary Heart Disease Events, n/total (%)” value (HLA-DPB1 hCV8851085, 0 Rare Alleles, n/total 263/919) is reported as “(28.6%)” and the “Fatal/Non-fatal Atherosclerotic CV Disease, n/total (%)” value (HLA-DPB1 hCV8851085, 0 Rare Alleles, n/total 301/919) is reported as “(32.8%)”. The “Hosp. for Cardiovascular Disease, n/total (%)” value (HLA-DPB1 hCV8851085, 0 Rare Alleles, n/total 363/919) was “(39.5%)”, the “Total Cardiovascular Disease Events, n/total (%)” value (HLA-DPB1 hCV8851085, 0 Rare Alleles, n/total 374/919) was “(40.7%)” and the “Fatal/Non-fatal MI (def & prob), n/total (%)” value (“Fatal/Non-fatal MI … (%)” below) (HLA-DPB1 hCV8851085, 1 Rare Allele, n/total 53/521) was “(10.2%)”. The “Coronary Artery Bypass or Revascularization, n/total (%)” value (HLA-DPB1 hCV8851085, 1 Rare Allele, n/total 72/521) was “(13.8%)”, the “Total Coronary Heart Disease Events, n/total (%)” value (HLA-DPB1 hCV8851085, 1 Rare Allele, n/total 151/521) was “(29.0%)” and the “Fatal/Non-fatal Atherosclerotic CV Disease, n/total (%)” value (HLA-DPB1 hCV8851085, 1 Rare Allele, n/total 174/521) was “(33.4%)”. For the same compound, the “Hosp. for Cardiovascular Disease, n/total (%)” value (HLA-DPB1 hCV8851085, 1 Rare Allele, n/total 209/521) was “(40.1%)”, the “Total Cardiovascular Disease Events, n/total (%)” value (HLA-DPB1 hCV8851085, 1 Rare Allele, n/total 214/521) was “(41.1%)” and the “Fatal/Non-fatal MI … (%)” value (HLA-DPB1 hCV8851085, 2 Rare Alleles, n/total 11/73) was “(15.1%)”. For the same compound, the “Coronary Artery Bypass or Revascularization, n/total (%)” value (HLA-DPB1 hCV8851085, 2 Rare Alleles, n/total 17/73) was “(23.3%)”, the “Total Coronary Heart Disease Events, n/total (%)” value (HLA-DPB1 hCV8851085, 2 Rare Alleles, n/total 26/73) was “(35.6%)” and the “Fatal/Non-fatal Atherosclerotic CV Disease, n/total (%)” value (HLA-DPB1 hCV8851085, 2 Rare Alleles, n/total 29/73) was “(39.7%)”. The “Hosp. for Cardiovascular Disease, n/total (%)” value (HLA-DPB1 hCV8851085, 2 Rare Alleles, n/total 33/73) was “(45.2%)”, the “Total Cardiovascular Disease Events, n/total (%)” value (HLA-DPB1 hCV8851085, 2 Rare Alleles, n/total 35/73) was “(47.9%)” and the “Prava vs. Placebo Odds Ratio, 0 Rare Alleles” value [1] was 0.68. For the same compound, the “Prava vs. Placebo Odds Ratio, 1 Rare Alleles” value [1] was 0.60, the “Prava vs. Placebo Odds Ratio, 2 Rare Alleles” value [1] was 3.54 and the “Prava vs. Placebo Odds Ratio, 0 Rare Alleles” value [2] was 0.70. The “Prava vs. Placebo Odds Ratio, 1 Rare Alleles” value [2] was 0.79, the “Prava vs. Placebo Odds Ratio, 2 Rare Alleles” value [2] was 2.12 and the “Prava vs. Placebo Odds Ratio, 0 Rare Alleles” value [3] was 0.57. The “Prava vs. Placebo Odds Ratio, 1 Rare Alleles” value [3] was 0.75, the “Prava vs. Placebo Odds Ratio, 2 Rare Alleles” value [3] was 2.07 and the “Prava vs. Placebo Odds Ratio, 0 Rare Alleles” value [4] was 0.71. The “Prava vs. Placebo Odds Ratio, 1 Rare Alleles” value [4] was 0.74, the “Prava vs. Placebo Odds Ratio, 2 Rare Alleles” value [4] was 1.79 and the “Prava vs. Placebo Odds Ratio, 0 Rare Alleles” value [5] was 0.70. The “Prava vs. Placebo Odds Ratio, 1 Rare Alleles” value [5] was 0.74, the “Prava vs. Placebo Odds Ratio, 2 Rare Alleles” value [5] was 1.77 and the “Prava vs. Placebo Odds Ratio, 0 Rare Alleles” value [6] was 0.72. For the same compound, the “Prava vs. Placebo Odds Ratio, 1 Rare Alleles” value [6] was 0.76, the “Prava vs. Placebo Odds Ratio, 2 Rare Alleles” value [6] was 2.25 and the “Fatal CHD/Definite Non-fatal MI, n/total (%)” value (HLA-DPB1 hCV25651174, 0 Rare Alleles, n/total 58/733) was “(7.9%)”. For the same compound, the “Non-fatal MI (def & prob), n/total (%)” value (HLA-DPB1 hCV25651174, 0 Rare Alleles, n/total 63/733) was “(8.6%)”, the “Fatal/Non-fatal MI … (%)” value (HLA-DPB1 hCV25651174, 0 Rare Alleles, n/total 65/733) was “(8.9%)” and the “Coronary Artery Bypass or Revascularization, n/total (%)” value (HLA-DPB1 hCV25651174, 0 Rare Alleles, n/total 103/733) was “(14.1%)”. For the same compound, the “Total Coronary Heart Disease Events, n/total (%)” value (HLA-DPB1 hCV25651174, 0 Rare Alleles, n/total 207/733) was “(28.2%)”, the “Fatal/Non-fatal Atherosclerotic CV Disease, n/total (%)” value (HLA-DPB1 hCV25651174, 0 Rare Alleles, n/total 230/733) was “(31.4%)” and the “Hosp. for Cardiovascular Disease, n/total (%)” value (HLA-DPB1 hCV25651174, 0 Rare Alleles, n/total 282/733) was “(38.5%)”. For the same compound, the “Total Cardiovascular Disease Events, n/total (%)” value (HLA-DPB1 hCV25651174, 0 Rare Alleles, n/total 291/733) was “(39.7%)”, the “Non-fatal MI (def & prob), n/total (%)” value (HLA-DPB1 hCV25651174, 1 Rare Allele, n/total 55/632) was “(8.7%)” and the “Fatal/Non-fatal MI … (%)” value (HLA-DPB1 hCV25651174, 1 Rare Allele, n/total 61/632) was “(9.7%)”. For the same compound, the “Fatal CHD/Definite Non-fatal MI, n/total (%)” value (HLA-DPB1 hCV25651174, 1 Rare Allele, n/total 62/632) was “(9.8%)”, the “Coronary Artery Bypass or Revascularization, n/total (%)” value (HLA-DPB1 hCV25651174, 1 Rare Allele, n/total 87/632) was “(13.8%)” and the “Total Coronary Heart Disease Events, n/total (%)” value (HLA-DPB1 hCV25651174, 1 Rare Allele, n/total 182/632) was “(28.8%)”. For the same compound, the “Fatal/Non-fatal Atherosclerotic CV Disease, n/total (%)” value (HLA-DPB1 hCV25651174, 1 Rare Allele, n/total 218/632) was “(34.5%)”, the “Hosp. for Cardiovascular Disease, n/total (%)” value (HLA-DPB1 hCV25651174, 1 Rare Allele, n/total 259/632) was “(41.0%)” and the “Total Cardiovascular Disease Events, n/total (%)” value (HLA-DPB1 hCV25651174, 1 Rare Allele, n/total 265/632) was “(41.9%)”. The “Non-fatal MI (def & prob), n/total (%)” value (HLA-DPB1 hCV25651174, 2 Rare Alleles, n/total 16/144) was “(11.1%)”, the “Fatal CHD/Definite Non-fatal MI, n/total (%)” value [7] was “(13.9%)” and the “Fatal/Non-fatal MI … (%)” value [7] was “(13.9%)”. The “Coronary Artery Bypass or Revascularization, n/total (%)” value (HLA-DPB1 hCV25651174, 2 Rare Alleles, n/total 27/144) was “(18.8%)”, the “Total Coronary Heart Disease Events, n/total (%)” value (HLA-DPB1 hCV25651174, 2 Rare Alleles, n/total 50/144) was “(34.7%)” and the “Fatal/Non-fatal Atherosclerotic CV Disease, n/total (%)” value (HLA-DPB1 hCV25651174, 2 Rare Alleles, n/total 54/144) was “(37.5%)”. The “Hosp. for Cardiovascular Disease, n/total (%)” value (HLA-DPB1 hCV25651174, 2 Rare Alleles, n/total 61/144) was “(42.4%)”.
